Source: PubChem BioAssay (NCI)
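Growth conditions: 96-well plates. Treatment: test compound, 48 hours, 5 concentrations. Analysis: linear interpolation between bracketing concentrations; unreached endpoints set to highest concentration. Here, GI50 denotes the concentration required for 50% inhibition of growth. Definition used: TGI = concentration required for complete inhibition of growth.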

Columns and labels:
Assay in all cases: inhibition of tumour cell growth, NCI panel, 48 h
RPMI-8226 leukemia = system: RPMI-8226 leukemia
UACC-257 melanoma = system: UACC-257 melanoma
786-0 renal = system: 786-0 renal
SNB-75 CNS = system: SNB-75 CNS
HCT-15 colon = system: HCT-15 colon
HT29 colon = system: HT29 colon
M14 melanoma = system: M14 melanoma
K-562 leukemia = system: K-562 leukemia
HOP-62 NSCLC = system: HOP-62 NSCLC
HS 578T breast = system: HS 578T breast

| Structure (SMILES) | GI50 (RPMI-8226 leukemia) | TGI (RPMI-8226 leukemia) | GI50 (UACC-257 melanoma) | TGI (UACC-257 melanoma) | GI50 (786-0 renal) | TGI (786-0 renal) | GI50 (SNB-75 CNS) | TGI (SNB-75 CNS) | GI50 (HCT-15 colon) | TGI (HCT-15 colon) | GI50 (HT29 colon) | TGI (HT29 colon) | GI50 (M14 melanoma) | TGI (M14 melanoma) | GI50 (K-562 leukemia) | TGI (K-562 leukemia) | GI50 (HOP-62 NSCLC) | TGI (HOP-62 NSCLC) | GI50 (HS 578T breast) | TGI (HS 578T breast) |
| --- | --- | --- | --- | --- | --- | --- | --- | --- | --- | --- | --- | --- | --- | --- | --- | --- | --- | --- | --- | --- |
| C=C(CNCCc1ccc(O)cc1)[C@@H]1CC[C@]2(CO)CC[C@]3(C)[C@H](CC[C@@H]4[C@@]5(C)CCC(=O)C(C)(C)[C@@H]5CC[C@]43C)[C@@H]12 | 1.79 µM | 4.45 µM | 1.78 µM | 3.26 µM | 1.6 µM | 2.95 µM | 1.37 µM | 2.74 µM | 1.47 µM | 2.89 µM | 1.62 µM | 3.08 µM | 1.72 µM | 3.24 µM | 1.86 µM | 4.72 µM | 1.58 µM | 3.11 µM | – | – |
| O=C([O-])c1ccc2c(c1)-c1nc-2nc2[n-]c(nc3nc(nc4[n-]c(n1)c1ccc(C(=O)[O-])cc41)-c1cc(C(=O)[O-])ccc1-3)c1ccc(C(=O)[O-])cc21.[Fe+2] | > 27.3 µM | > 36.4 µM | > 50 µM | > 50 µM | > 30.7 µM | > 50 µM | 31.8 µM | > 50 µM | > 22.3 µM | > 32.1 µM | > 50 µM | > 50 µM | > 50 µM | > 50 µM | > 23 µM | > 33.7 µM | > 50 µM | > 50 µM | – | – |
| C=C(CN(CC(=C)C(=O)c1ccccc1)C(C)(C)C)C(=O)c1ccccc1 | – | 68.4 µM | – | 32.6 µM | – | 24.5 µM | – | 17.6 µM | – | – | – | 41.9 µM | – | 23 µM | – | 21.1 µM | – | – | – | – |
| COc1ccc(NC(=O)C(=O)NNC(=O)c2sc(NNC(C)=O)nc2C)c([N+](=O)[O-])c1 | – | > 100 µM | – | > 100 µM | – | > 100 µM | – | – | – | > 100 µM | – | > 100 µM | – | > 100 µM | – | > 100 µM | – | > 100 µM | – | – |
| COC(=O)C1=C(C(=O)OC)C23C=CC=CC24C(C(=O)OC)=C(C(=O)OC)C4C1C3 (stereo not given) | – | > 100 µM | – | > 100 µM | – | > 100 µM | – | 9.08 µM | – | > 100 µM | – | > 100 µM | – | > 100 µM | – | > 100 µM | – | > 100 µM | – | – |
| Cc1ccc(S(=O)(=O)N2CCC3(C(/C=C/c4ccccc4)=Nc4ccccc43)C2c2ccccc2)cc1 (stereo not given) | – | > 100 µM | – | > 100 µM | – | > 100 µM | – | > 100 µM | – | > 100 µM | – | > 100 µM | – | > 100 µM | – | > 100 µM | – | > 100 µM | – | – |
| N#C/C(=C/c1cccnc1)C(=O)c1ccccc1 | – | > 100 µM | – | > 100 µM | – | > 100 µM | – | > 100 µM | – | > 100 µM | – | > 100 µM | – | > 100 µM | – | > 100 µM | – | > 100 µM | – | – |
| CCCCCCCCCCCCCC/C(C(=O)OC)=C(/O)C(=O)OCC | – | > 100 µM | – | > 100 µM | – | 38.2 µM | – | > 100 µM | – | 36.3 µM | – | > 100 µM | – | 37.4 µM | – | > 100 µM | – | > 100 µM | – | – |
| CCOP(=O)(CC(=O)C1=C(O)C(CCCNC(=O)OC(C)(C)C)N(Cc2ccc(OC)c(OC)c2)C1=O)OCC (stereo not given) | – | > 100 µM | – | > 100 µM | – | > 100 µM | – | > 100 µM | – | – | – | > 100 µM | – | > 100 µM | – | > 100 µM | – | > 100 µM | – | – |
| CC1=C(C(=O)Nc2ccccc2C)C(c2ccc([N+](=O)[O-])cc2)C(C(=O)Nc2ccccc2C)=C(C)N1 | – | > 100 µM | – | > 100 µM | – | > 100 µM | – | 86.5 µM | – | > 100 µM | – | > 100 µM | – | > 100 µM | – | > 100 µM | – | > 100 µM | – | – |
| CC12O[C@H](c3ccccc3)[C@H](c3ccccc3)N1C(=O)C1(C(=O)OCc3ccccc3)CC12 (stereo not given in full) | – | – | – | > 100 µM | – | > 100 µM | – | > 100 µM | – | > 100 µM | – | > 100 µM | – | > 100 µM | – | > 100 µM | – | > 100 µM | – | – |
| Cc1c(O)c(=O)ccn1C1OC(CO)C(O)C1O (stereo not given) | – | > 100 µM | – | > 100 µM | – | > 100 µM | – | > 100 µM | – | > 100 µM | – | > 100 µM | – | > 100 µM | – | > 100 µM | – | > 100 µM | – | – |
| COc1ccc2nc(NCCCNCCO)c3sc4ccc(F)cc4c(=O)c3c2c1 | – | – | 1.89 µM | 4.04 µM | 1.38 µM | 2.82 µM | 1.55 µM | 3.05 µM | 1.28 µM | 2.64 µM | 1.58 µM | 3.23 µM | 1.85 µM | 3.48 µM | – | – | 1.62 µM | 3.26 µM | 1.6 µM | 3.57 µM |
| N/N=C1\c2ccccc2C2/C(=N\N)c3ccccc3C12 (stereo not given) | – | > 100 µM | – | > 100 µM | – | > 100 µM | – | > 100 µM | – | > 100 µM | – | > 100 µM | – | > 100 µM | – | > 100 µM | – | – | – | – |
